Results published in paper PMC7377239, “Cardiovascular Effects of Polychlorinated Biphenyls and Their Major Metabolites” (Environmental Health Perspectives, 2020).
Like-named read-outs stand apart in the source and are kept apart here.

Columns and labels:
HUVECs = assay: High-content imaging cytotoxicity in HUVECs, 24 h; type: cell-based, human; conditions: Homo sapiens, HUVEC, 24 h, HUVEC; for viability at 0.01 µM / activity at 0.01 µM / viability at 0.1 µM / activity at 0.1 µM / viability at 1 µM / activity at 1 µM / viability at 10 µM / activity at 10 µM / viability at 100 µM / activity at 100 µM: 0.00 µM = 100.00; for viability at 0.1 µM / activity at 0.1 µM: 0.10 µM
How it was run: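 Read-out: multiwavelength high-content imaging of Hoechst 33342, MitoTracker Orange and calcein AM after 24 h compound exposure of confluent HUVEC monolayers. POD values were set using a one-SD cutoff from vehicle (0.5% DMSO) means; with no concentration–response, 100μM was assigned as no observable adverse effect level.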

[1] = system: iCell endothelial cells (human iPSC-derived ECs); assay: High-content imaging cytotoxicity in iCell endothelial cells, 24 h; type: cell-based; conditions: Homo sapiens, Endothelial cell, 24 hr; for viability at 0.1 µM / activity at 0.1 µM: 0.10 µM
How it was run: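 Readouts were vehicle-normalised and fitted to a four-parameter logistic model. POD was set at one SD beyond 0.5% DMSO control means, and 100 µM was assigned when no response was seen. Cells were monolayers of iCell endothelial cells imaged after 24 h compound exposure using nuclear, mitochondrial and calcein dyes.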

[2] = HUVECs, 24 hr, read-out: huvec.cyto.24hr
[3] = HUVECs, 24 hr, read-out: huvec.mito.24hr
[4] = HUVECs, 24 hr, read-out: huvec.mitoint.24hr
[5] = HUVECs, 24 hr, read-out: huvec.nma.24hr
[6] = HUVECs, 24 hrs, read-out: huvec.tc.24hrs
[7] = iPSC-EC, 0.00 µM control = 100.00, read-out: endo.cyto.24hr
[8] = iPSC-EC, 0.00 µM control = 100.00, read-out: endo.mito.24hr
[9] = iPSC-EC, 0.00 µM control = 100.00, read-out: endo.mitoint.24hr
[10] = iPSC-EC, 0.00 µM control = 100.00, read-out: endo.nma.24hr
[11] = iPSC-EC, 0.00 µM control = 100.00, read-out: endo.tc.24hrs

## Oc1cc(Cl)c(-c2cc(Cl)ccc2Cl)cc1Cl [4-OH-PCB 52]
HUVECs; cyto, 24 hr, read-out: POD huvec.cyto.24hr
  minimal effective concentration: 1 µM
HUVECs; mito, 24 hr, read-out: POD huvec.mito.24hr
  minimal effective concentration: 1.1 µM
HUVECs; mitoint, 24 hr, read-out: POD huvec.mitoint.24hr
  minimal effective concentration: 2.32 µM
HUVECs; nma, 24 hr, read-out: POD huvec.nma.24hr
  minimal effective concentration: 100 µM
HUVECs; tc, 24 hr, read-out: POD huvec.tc.24hr
  minimal effective concentration: 1 µM
[1]; endothelial cells (endo), cyto, read-out: POD endo.cyto.24hr
  minimal effective concentration: 13.2 µM
[1]; endothelial cells (endo), mito, read-out: POD endo.mito.24hr
  minimal effective concentration: 13.2 µM
[1]; endothelial cells (endo), mitoint, read-out: POD endo.mitoint.24hr
  minimal effective concentration: 43.8 µM
[1]; endothelial cells (endo), nma, read-out: POD endo.nma.24hr
  minimal effective concentration: 63.5 µM
[1]; endothelial cells (endo), tc, read-out: POD endo.tc.24hr
  minimal effective concentration: 16.6 µM

## COc1ccc(-c2cccc(Cl)c2)cc1Cl [4-OMe PCB11]
HUVECs; [2]
  viability at 0.01 µM: 96.4%
  viability at 0.1 µM: 98.3%
  viability at 1 µM: 101%
  viability at 10 µM: 89.7%
  viability at 100 µM: 56.3%
HUVECs; [3]
  activity at 0.01 µM: 94.6%
  activity at 0.1 µM: 98.5%
  activity at 1 µM: 100%
  activity at 10 µM: 86.4%
  activity at 100 µM: 44%
HUVECs; [4]
  activity at 0.01 µM: 95.4%
  activity at 0.1 µM: 106%
  activity at 1 µM: 103%
  activity at 10 µM: 95.6%
  activity at 100 µM: 65.8%
HUVECs; [5]
  activity at 0.01 µM: 96.3%
  activity at 0.1 µM: 101%
  activity at 1 µM: 100%
  activity at 10 µM: 92.7%
  activity at 100 µM: 73.1%
HUVECs; HUVECs, 24 hr, top concentration 100.00 µM, read-out: huvec.cyto.24hr POD
  minimal effective concentration: 7.59 µM
HUVECs; HUVECs, 24 hr, top concentration 100.00 µM, read-out: huvec.mito.24hr POD
  minimal effective concentration: 6.19 µM
HUVECs; HUVECs, 24 hr, top concentration 100.00 µM, read-out: huvec.mitoint.24hr POD
  minimal effective concentration: 16 µM
HUVECs; HUVECs, 24 hr, top concentration 100.00 µM, read-out: huvec.nma.24hr POD
  minimal effective concentration: 6.39 µM
HUVECs; [6]
  viability at 0.01 µM: 96.4%
  viability at 0.1 µM: 98.4%
  viability at 1 µM: 101%
  viability at 10 µM: 89.7%
  viability at 100 µM: 56.4%
HUVECs; HUVECs, 24 hrs, top concentration 100.00 µM, read-out: huvec.tc.24hrs POD
  minimal effective concentration: 7.59 µM
[1]; [7]
  viability at 0.01 µM: 88.3%
  viability at 0.1 µM: 101%
  viability at 1 µM: 99.8%
  viability at 10 µM: 100%
  viability at 100 µM: 97.3%
[1]; [8]
  activity at 0.01 µM: 88.6%
  activity at 0.1 µM: 100%
  activity at 1 µM: 99.2%
  activity at 10 µM: 100%
  activity at 100 µM: 98%
[1]; [9]
  activity at 0.01 µM: 94.9%
  activity at 0.1 µM: 87%
  activity at 1 µM: 87.7%
  activity at 10 µM: 97.5%
  activity at 100 µM: 98.6%
[1]; [10]
  activity at 0.01 µM: 107%
  activity at 0.1 µM: 104%
  activity at 1 µM: 100%
  activity at 10 µM: 101%
  activity at 100 µM: 102%
[1]; [11]
  viability at 0.01 µM: 88.3%
  viability at 0.1 µM: 101%
  viability at 1 µM: 99.8%
  viability at 10 µM: 100%
  viability at 100 µM: 97.3%
[1]; iPSC-EC, top concentration 100.00 µM, read-out: endo.cyto.24hr POD
  minimal effective concentration: 100 µM
[1]; iPSC-EC, top concentration 100.00 µM, read-out: endo.mito.24hr POD
  minimal effective concentration: 100 µM
[1]; iPSC-EC, top concentration 100.00 µM, read-out: endo.mitoint.24hr POD
  minimal effective concentration: 100 µM
[1]; iPSC-EC, top concentration 100.00 µM, read-out: endo.nma.24hr POD
  minimal effective concentration: 100 µM
[1]; iPSC-EC, top concentration 100.00 µM, read-out: endo.tc.24hrs POD
  minimal effective concentration: 100 µM
